From US20160297833A1, “THIENOPYRIMIDINES AS MKNK1 AND MKNK2 INHIBITORS” (BAYER PHARMA AKTIENGESELLSCHAFT, priority 2013, published 2016) come the findings set out here.

T1 sequence (Q9BUB5 1-424 isoform Q9BUB5-2 T344D): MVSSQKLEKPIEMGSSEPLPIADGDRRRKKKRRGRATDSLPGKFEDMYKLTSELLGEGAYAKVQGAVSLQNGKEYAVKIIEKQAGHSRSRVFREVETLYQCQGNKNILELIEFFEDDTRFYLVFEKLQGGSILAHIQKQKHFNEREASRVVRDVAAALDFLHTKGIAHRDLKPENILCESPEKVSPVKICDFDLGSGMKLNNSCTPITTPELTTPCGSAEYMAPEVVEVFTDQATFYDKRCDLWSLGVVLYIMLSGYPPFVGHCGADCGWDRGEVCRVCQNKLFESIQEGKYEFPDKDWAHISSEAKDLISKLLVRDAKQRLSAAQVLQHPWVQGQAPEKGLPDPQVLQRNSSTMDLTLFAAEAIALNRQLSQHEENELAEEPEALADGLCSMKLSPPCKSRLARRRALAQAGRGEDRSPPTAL

The assay has as its target T1, human full-length MKNK1 (Homo sapiens, UniProt Q9BUB5, T385D).
T1 construct: GST (N); purchased Carna Biosciences 02-145; host or cells: insect cells (baculovirus expression system)
Put plainly: MKNK1 kinase high ATP assay (TR-FRET). It is filed as biochemical. The conditions noted are these: Table 1; MKNK1 kinase high ATP assay, 2 mM ATP; read-out: MKNK1 IC50. An outline of the steps: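 Full-length human MKNK1 (T385D) preincubated 15 min at 22 °C with compound in HEPES pH 7.5/MgCl2/DTT buffer; reaction with 2 mM ATP (final) and 0.06 μM biotinylated peptide (final), 30 min at 22 °C.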
(Time-resolved FRET reads energy transfer from a long-lived donor to a nearby acceptor.)
For `COc1cc2[nH]ncc2cc1Nc1ncnc2sc3c(c12)CC[C@H](C(=O)N(CCN(C)C)Cc1ccccn1)C3` [Example 60, (7S)—N-[2-(Dimethylamino)ethyl]-4-[(6-methoxy-1H-indazol-5-yl)amino]-N-(pyridin-2-ylmethyl)-5,6,7,8-tetrahydro[1]benzothieno[2,3-d]pyrimidine-7-carboxamide], the IC50 came out at 0.2 nM.
The same measure for `CCOc1cc2[nH]ncc2cc1Nc1ncnc2sc3c(c12)CC[C@H](C(=O)N1CC[C@H](N(C)C)C1)C3` [Example 172, [(3S)-3-(Dimethylamino)pyrrolidin-1-yl]{(7S)-4-[(6-ethoxy-1H-indazol-5-yl)amino]-5,6,7,8-tetrahydro[1]benzothieno[2,3-d]pyrimidin-7-yl}methanone]: 0.1 nM; for `CN(C)C(=O)[C@H]1CCc2c(sc3ncnc(Nc4cc5cn[nH]c5cc4OC4CN(C(=O)OC(C)(C)C)C4)c23)C1` [Example 265, tert-Butyl 3-[(5-{[(7S)-7-(dimethylcarbamoyl)-5,6,7,8-tetrahydro[1]benzothieno[2,3-d]pyrimidin-4-yl]amino}-1H-indazol-6-yl)oxy]azetidine-1-carboxylate]: 0.9 nM; for `CCOc1cc2[nH]ncc2cc1Nc1ncnc2sc3c(c12)CC[C@H](C(=O)N1C[C@@H](O)[C@H](O)C1)C3` [Example 75, [(3R,4R)-3,4-Dihydroxypyrrolidin-1-yl]{(7S)-4-[(6-ethoxy-1H-indazol-5-yl)amino]-5,6,7,8-tetrahydro[1]benzothieno[2,3-d]pyrimidin-7-yl}methanone]: 0.3 nM.
On to `C[C@H]1COCCN1C(=O)[C@H]1CCc2c(sc3ncnc(Nc4cc5cn[nH]c5cc4N4CCC(N(C)C)CC4)c23)C1` [Example 135, [(7S)-4-({6-[4-(Dimethylamino)piperidin-1-yl]-1H-indazol-5-yl}amino)-5,6,7,8-tetrahydro[1]benzothieno[2,3-d]pyrimidin-7-yl][(3S)-3-methylmorpholin-4-yl]methanone], for which the IC50 turned out to be 14.1 nM.
With `CC(C)N(C)C(=O)[C@H]1CCc2c(sc3ncnc(Nc4cc5cn[nH]c5cc4N4CCC(N(C)C)CC4)c23)C1` [Example 155, (7S)-4-({6-[4-(Dimethylamino)piperidin-1-yl]-1H-indazol-5-yl}amino)-N-methyl-N-(propan-2-yl)-5,6,7,8-tetrahydro[1]benzothieno[2,3-d]pyrimidine-7-carboxamide], the half-inhibitory concentration (IC50) was 7.6 nM.
As to `COc1cc2[nH]ncc2cc1Nc1ncnc2sc3c(c12)CC[C@H](C(=O)N1CCN(C(=O)N(C)C)CC1)C3` [Example 49, 4-({(7S)-4-[(6-Methoxy-1H-indazol-5-yl)amino]-5,6,7,8-tetrahydro[1]benzothieno[2,3-d]pyrimidin-7-yl}carbonyl)-N,N-dimethylpiperazine-1-carboxamide], the half-maximal inhibitory concentration (IC50) is 0.1 nM.
On to `CCN(CCO)C(=O)[C@H]1CCc2c(sc3ncnc(Nc4ccc5[nH]ncc5c4)c23)C1` [Example 19, (7S)—N-Ethyl-N-(2-hydroxyethyl)-4-(1H-indazol-5-ylamino)-5,6,7,8-tetrahydro[1]benzothieno[2,3-d]pyrimidine-7-carboxamide], for which the IC50 was determined as 2.5 nM.
The figure for `CC(C)Oc1cc2[nH]ncc2cc1Nc1ncnc2sc3c(c12)CC[C@@H](C(=O)N1CC2(COC2)C1)C3` [Example 89, 2-Oxa-6-azaspiro[3.3]hept-6-yl[(7R)-4-{[6-(propan-2-yloxy)-1H-indazol-5-yl]amino}-5,6,7,8-tetrahydro[1]benzothieno[2,3-d]pyrimidin-7-yl]methanone] is 6 nM; for `CN(CCC(F)(F)F)C(=O)[C@H]1CCc2c(sc3ncnc(Nc4cc5cn[nH]c5cc4N(C)C)c23)C1` [Example 241, (7S)-4-{[6-(Dimethylamino)-1H-indazol-5-yl]amino}-N-methyl-N-(3,3,3-trifluoropropyl)-5,6,7,8-tetrahydro[1]benzothieno[2,3-d]pyrimidine-7-carboxamide] it is 0.2 nM.

By IC50 is commonly meant the point on the concentration scale where inhibition reaches its midpoint.
